In patent US11760733B2, “Small molecule regulators of mitochondrial fusion and methods of use thereof” (Washington University, priority 2017, dated 2023):
Entries after “also recorded” stand apart in the source; their conditions may differ.

Experiments:
Mfn2 null MEFs = assay: Mitochondrial elongation (aspect ratio) fusogenicity assay; type: cell-based, mouse
Description: A cultured murine embryonic fibroblast assay system was used in which mitochondrial elongation (an increase in aspect ratio) reflects enhanced mitochondrial fusion.
A pharmacophore model was generated based on the interactions of HR1 and HR2 domains in the calculated structural model of Mfn2 in the closed conformation. The key features included hydrophobic interactions involving Mfn2 HR1: Val372 and Met376, and aromatic interactions and hydrogen bonding involving Mfn2 HR1 His380. […] A library comprising ˜14 million commercially available compounds was prepared in silico and evaluated using PHASE to fit these criteria. Top ranked hits were clustered, and filtered based on pharmacological properties using Qikprop. The top 55 (see TABLE 4) commercially available small molecules conforming to the model were selected for functional screening and purchased in 1 mg aliquots. Each compound was dissolved to a stock concentration of 10 mM in DMSO and applied to Mfn2 null MEFs overnight at a final concentration of 1 mM. […] Images were acquired by confocal microscopy. Each compound was scored for fusogenicity (see e.g., FIG. 24A) and % cell death (see e.g., FIG. 24B).
Wild-type MEFs were prepared from E10.5 c57/bl6 mouse embryos. […] MEFs were subcultured in DMEM (4.5 g/L glucose) plus 10% fetal bovine serum, 1× nonessential amino acids, 2 mM L-glutamine, 100U/ml penicillin and 100 ug/ml streptomycin.
Cells were excited with 408 nm (Hoechst), […] (MitoTracker Green and Calcein AM, GFP), or 637 nm (TMRE, MitoTracker Orange, Ethidium homodimer-1, and AF594-Dextran) laser diodes. For mitochondrial elongation studies mitochondrial aspect ratio (long axis/short axis) was calculated using automated edge detection and Image J software. Mitochondrial depolarization was calculated as % of green mitochondria visualized on MitoTracker Green and TMRE merged images, expressed as green/(green+yellow mitochondria)×100.

[1] = test system: ALS and HD patient-derived fibroblasts; assay: Mitochondrial health in ALS and HD patient-derived fibroblasts; type: cell-based, human
Experimental: HD patient-derived fibroblast cell lines (GM04693 from patient and GM05539 from patient) were purchased from Invitrogen. ALS patient-derived fibroblasts (ALS 1: ND29509 from patient having SOD1 mutation; ALS 2: ND30327 having FUS1 mutation) and fibroblasts of control healthy individuals were purchased from Coriell Institute, USA. All fibroblast cultures were maintained in MEM supplemented with 15% (v/v) FBS and 1% (v/v) penicillin/streptomycin at 37° C. in 5% CO2-95% air. Galactose media was used, to increase mitochondria-dependent metabolism oxidative phosphorylation. Human fibroblasts were switched to grow for 48 h in DMEM deprived of glucose and containing galactose (4.5 g/l), 1% FBS, 5 mM sodium pyruvate and 2 mM L-glutamine for the studies.
Cells cultured in 8-well chamber slides were washed with cold PBS, fixed in 4% formaldehyde, and permeabilized with 0.1% Triton X-100. After incubation with 2% normal goat serum (to block nonspecific staining), fixed cells were incubated overnight at 4° C. with TOM20 antibody (1:500) (Santa Cruz, USA). Cells were washed with PBS and incubated for 60 minutes with FITC-conjugated goat anti-rabbit IgG (1:500 dilution). The cells were then washed gently with PBS and counterstained with Hoechst 33342 (1:10,000 dilution, Molecular Probes) to visualize nuclei. The coverslips were mounted with Slow-fade anti-fade reagent (Invitrogen), and images were acquired at 60× using an All-in-One Fluorescence Microscope BZ-X700 (Keyence).
Cells were incubated with tetra-methyl-rhodamine methyl ester (TMRM, 25 nM, Invitrogen) in HBSS (Hank's balanced salt solution) for 30 min at 37° C., per the manufacture's protocol, and the fluorescence was analyzed to measure mitochondrial membrane potential. All data were normalized with respect to the fluorescence intensity of control cells. To determine mitochondrial ROS production, cells were treated with 5 μM MitoSOX™ Red, a mitochondrial superoxide indicator (Invitrogen) for 20 min at 37° C., according to the manufacturer's protocol, and fluorescence was analyzed using SpectraMax M2e (Molecular devices).

[2] = test system: MFN2 T105M sciatic nerves; assay: Sciatic nerve axonal mitochondrial motility, agonist applied to nerve; settings: MFN2 T105M mouse sciatic nerve
Experimental: Sciatic nerves of 12-18 week old male or female MFN2 T105M mice were removed en bloc with the lumbar spine and axotomy at the tibial nerve, stained with TMEM ([…]) for 30 minutes in prewarmed Neurobasal Medium without phenol red (Thermo Fisher Scientific) at room temperature, washed, and maintained on the stage of a Nikon A1Rsi Confocal Microscope at 37 degrees C. for time-lapse confocal studies. Images were acquired with a 40× oil immersion objective at 1 frame every 5 or 10 seconds for sequential 10 minute periods. Mitofusin agonist chimera B-A/I was added after the first 10 minute imaging period (final concentrations of […]) and nerve axons imaged for another 40 minutes. Because there was no difference in mitochondrial trafficking or response to mitofusin agonist between male and female mice, the data were combined.

[3] = test system: MFN2 Asp378 and Ala378 mutants; assay: Mitochondrial fusion in cells expressing MFN2 Ser378 mutants; type: cell-based, human; settings: phosphomimic Asp378 vs nonphosphorylatable Ala378
Description: On the basis of fluorescence resonance energy transfer (FRET) analysis of MFN2 labeled at the N and C termini, mitofusin agonists promoted an open MFN2 conformation favoring mitochondrial fusion, with a rank order paralleling that for HR2 binding and mitochondrial fusion (see e.g., FIG. 11G; compare to FIG. 11B and FIG. 11C), supporting allosteric activation.
Human Mfn2 Ser378 was mutated to Ala or Asp by site-directed mutagenesis using the QuikChange Lightning kit (Agilent Technologies Inc.) and primers: […]
Mfn2 and its mutants were sub-cloned into adenoviral vector Type 5 (dE1/E3) with RGD-fiber modification (Vector Biolabs) using BamHI/XhoI. All constructs were verified by Sanger DNA sequencing. Adeno-viral PINK1 was purchased from Vector Biolabs.

CC1CCCCC1NC(=O)NCCSc1nnc(C2CC2)n1-c1ccccc1 (racemic) [B-A/I, 1-(2-((5-cyclopropyl-4-phenyl-4H-1,2,4-triazol-3-yl)thio)ethyl)-3-(2-methylcyclohexyl)urea]
fusogenic activity (mitochondrial elongation), in words (Mfn2 null MEFs): potently stimulated mitochondrial fusion | mitochondrial structural defects ([1]; ALS and HD fibroblasts): enhances mitochondrial structural defects | mitochondrial ROS levels ([1]; ALS and HD fibroblasts, MitoSOX): reduces mitochondrial ROS levels | mitochondrial membrane potential ([1]; ALS and HD fibroblasts, TMRM): improves mitochondrial membrane potential | effect on fibroblasts from control subjects ([1]; control fibroblasts): no effect | sciatic nerve axonal mitochondrial motility [2]: rapidly reverses mitochondrial dysmotility; also recorded: restored mitochondrial motility to within normal levels | selectivity of fusogenic effect for MFN2 Ser378 mutants [3]: non-selective
